The source of these data is publication PMC2783333 (Nature chemical biology, 2009).

Read-outs that look alike come from different tables or passages of the source.

Assay [1] concerns MARTXVc CPD. Conditions: cited from earlier work.
Assay [2] has as its target V. vulnificus CMCP6 VV20479 MARTX CPD (Vibrio vulnificus, UniProt A0A2S3R7M0). In kind it is biochemical. Conditions: 10 µM InsP6.
Assay [3] concerns P. luminescens TTO1 MARTX CPDs (Plu3217, Plu3324, Plu1341, Plu1344). In kind it is biochemical, Photorhabdus luminescens.
Assay [4] concerns MARTXVc CPD. In kind it is biochemical, Vibrio cholerae. Conditions: read-out: AC50 (InsP6 for 50% cleavage).

Consider `Nc1nc2c(ncn2[C@@H]2O[C@H](COP(=O)(O)OP(=O)(O)OP(O)(O)=S)[C@@H](O)[C@H]2O)c(=O)[nH]1` [GTPγS, guanosine 5′-[γ-thio]triphosphate], for which, in assay [1], the “potency as activator of the CPD” value is recorded as “much less potent activator”.

As for `O=P(O)(O)OC1C(OP(=O)(O)O)C(OP(=O)(O)O)C(OP(=O)(O)O)C(OP(=O)(O)O)C1OP(=O)(O)O` (centres unmarked) [InsP6, inositol hexakisphosphate], the values for the half-maximal activity concentration (AC50) in assay [1] (read-out: AC50 (InsP6 for half-maximal autocleavage)) and in assay [4] were 0.91 ± 0.1 nM and 0.76 ± 0.27 nM, respectively. Moreover, the InsP6-dependent autoprocessing entry in assay [2] and in assay [3] was “underwent InsP6-dependent autoprocessing” throughout.
